In patent EP4509511A1, “SUBSTITUTED SPIRO-ISOXAZOLINYL LACTAMS, SALTS THEREOF AND THEIR USE AS HERBICIDALLY ACTIVE SUBSTANCES” (Bayer Aktiengesellschaft, priority 2023, dated 2025):

What was measured:
[1] = test system: ORYZA; assay: Post-emergence effects on crop plants; type: in vivo, Oryza sativa; conditions: crop plant
Excerpt: (§1) Seeds of mono- and dicotyledonous weed plants and crop plants were sown, in plastic or organic planting pots, in sandy loam, covered with soil and grown in a greenhouse under controlled growth conditions. 2 to 3 weeks after sowing, the test plants were sprayed in the single-leaf stage. The compounds according to the invention, formulated in form of wettable powders (WP) or as emulsifiable concentrates (EC), were sprayed onto the green plant parts as aqueous suspension or emulsion, with the addition of 0.5% of an additive, at an application rate of 600 1 of water/ha (converted). The test plants were placed in the greenhouse for ca. 3 weeks under optimum growth conditions, and then the effect of the preparations was assessed visually in comparison with untreated controls (herbicidal effect in percent (%): 100% effect = plants have died off, 0% effect = as control plants). Tables F1 to F5 below show the effects of selected compounds of the general formula (I) according to table 1 on various crop plants and an application rate corresponding to 320 g/ha or below obtained by the experimental procedure mentioned above. Table […]: post-emergence activity at 5g/ha against ZEAMX in %

[2] = test system: MATIN; assay: Herbicidal post-emergence action - Part I; type: in vivo, Matricaria inodora; conditions: one-leaf stage, rated visually after about 3 weeks vs untreated controls
Procedure: Seeds of mono- and dicotyledonous weed plants were placed in plastic pots in sandy loam soil (doubly sown with in each case one species of mono- or dicotyledonous weed plants per pot), covered with soil and cultivated in a greenhouse under controlled growth conditions. 2 to 3 weeks after sowing, the test plants were treated at the one-leaf stage. The compounds of the invention, formulated in the form of wettable powders (WP) or as emulsion concentrates (EC), were applied onto the green parts of the plants as aqueous suspension or emulsion with addition of 0.5% additive at a water application rate of 600 liters per hectare (converted). After the test plants had been kept in the greenhouse under optimum growth conditions for about 3 weeks, the activity of the preparations was rated visually in comparison to untreated controls. For example, 100% activity = the plants have died, 0% activity = like control plants. Tables B1 to B12, below, show the effects of selected compounds of the general formula (I) according to table 1 on various harmful plants and an application rate corresponding to 1280 g/ha or below obtained by the experimental procedure mentioned above. Table B1a: post-emergence activity at 1280g/ha against ABUTH in %

[3] = test system: ECHCG; assay: Herbicidal pre-emergence action - Part I; type: in vivo, Echinochloa crus-galli; conditions: visual grading after ca. 3 weeks vs untreated controls
Outline: (§2)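 Seeds are sown and covered with sandy loam soil, one monocot and one dicot weed species per pot. The test compound (WP or EC, 0.5% additive, 600 l/ha) is then applied to the soil surface at up to 1280 g/ha. Pots are kept in a greenhouse and injury is rated visually after ca. 3 weeks.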

[4] = test system: POAAN; assay: Herbicidal pre-emergence action - Part I; type: in vivo, Poa annua; conditions: visual grading after ca. 3 weeks vs untreated controls
Excerpt: (§3) Seeds of mono- and dicotyledonous weed plants were sown in plastic pots (double sowings with one species of mono- and one species of dicotyledonous weed plants per pot), in sandy loam, and covered with soil. The compounds according to the invention, formulated in the form of wettable powders (WP) or as emulsifiable concentrates (EC), were applied to the surface of the covering soil as aqueous suspension or emulsion, with the addition of 0.5% of an additive, at an application rate of 600 1 of water per hectare (converted). Following treatment, the pots were placed in a greenhouse and kept under optimum growth conditions for the test plants. The visual grading of the damage to the test plants was carried out after ca. 3 weeks in comparison to untreated controls (herbicidaleffectinpercent(%):100%effect=plantshavediedoff,0%effect=ascontrolplants). [formula]
(§4) Tables A1 to A12, below, show the effects of selected compounds of the general formula (I) according to table 1 on various harmful plants and an application rate corresponding to 1280 g/ha or below obtained by the experimental procedure mentioned above. Table A1: pre-emergence activity at 1280g/ha against ABUTH in %

[5] = test system: STEME; assay: Herbicidal post-emergence action - Part I; type: in vivo, Stellaria media; conditions: 1280 g/ha, one-leaf stage, rated visually after about 3 weeks vs untreated controls
Outline: (§5)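 Greenhouse weeds grown in sandy loam were sprayed post-emergence at the one-leaf stage, 2-3 weeks after sowing. Compounds were applied as WP or EC in water with 0.5% additive at 600 L/ha, at 1280 g/ha or below. Visual damage was rated after about 3 weeks versus untreated plants (0-100%).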

[6] = test system: KCHSC; assay: Herbicidal post-emergence action - Part I; type: in vivo, Kochia scoparia; conditions: one-leaf stage, rated visually after about 3 weeks vs untreated controls
Outline: as §5

[7] = test system: DIGSA; assay: Herbicidal pre-emergence action - Part II; type: in vivo, Digitaria sanguinalis
Excerpt: (§6) Seeds of mono- and dicotyledonous weed plants and crop plants were sown, in plastic or organic planting pots, in sandy loam and covered with soil. The compounds according to the invention, formulated in the form of wettable powders (WP) or as emulsifiable concentrates (EC), were applied to the surface of the covering soil as aqueous suspension or emulsion, with the addition of 0.5% of an additive, at an application rate of 600 1 of water/ha (converted). Following treatment, the pots were placed in a greenhouse and kept under optimum growth conditions for the test plants. The visual grading of the damage to the test plants was carried out after ca. 3 weeks in comparison to untreated controls (herbicidal effect in percent (%): 100% effect = plants have died off, 0% effect = as control plants). Tables C1 to C12 below show the effects of selected compounds of the general formula (I) according to table 1 on various harmful plants and an application rate corresponding to 320 g/ha or below obtained by the experimental procedure mentioned above. Table C1: pre-emergence activity at 320g/ha against ABUTH in %

[8] = test system: KCHSC; assay: Herbicidal pre-emergence action - Part I; type: in vivo, Kochia scoparia; conditions: 1280 g/ha
Excerpt: as §3, §4

[9] = test system: TRZAS; assay: Post-emergence effects on crop plants; type: in vivo, Triticum aestivum; conditions: crop plant
Outline: (§7)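 Crop plants were grown in sandy loam in the greenhouse and sprayed at the single-leaf stage, 2–3 weeks after sowing, with WP or EC formulations plus 0.5% additive in 600 l water/ha, at rates of 320 g/ha or below. Injury was scored visually about 3 weeks later as % effect versus untreated controls (100% = plants dead).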

[10] = test system: ALOMY; assay: Herbicidal pre-emergence action - Part II; type: in vivo, Alopecurus myosuroides; conditions: visual grading after ca. 3 weeks vs untreated controls
Excerpt: as §6

[11] = test system: ZEAMX; assay: Post-emergence effects on crop plants; type: in vivo, Zea mays; conditions: crop plant
Outline: as §7

[12] = test system: BRSNW; assay: Post-emergence effects on crop plants; type: in vivo, Brassica napus; conditions: crop plant
Excerpt: as §1

[13] = test system: GLXMA; assay: Post-emergence effects on crop plants; type: in vivo, Glycine max; conditions: crop plant
Excerpt: as §1

[14] = test system: AMARE; assay: Herbicidal pre-emergence action - Part I; type: in vivo, Amaranthus retroflexus; conditions: for pre-emergence activity at 320g/ha against AMARE in % / pre-emergence activity at 1280g/ha against AMARE in %: visual grading after ca. 3 weeks vs untreated controls
Outline: as §2

[15] = Table A10a, visual grading after ca. 3 weeks vs untreated controls
[16] = 80 g/ha, table titled F4c (BRSNW)

SMILES | post-emergence activity against ORYZA ([1]; 320 g/ha, Table F3a) [%] | post-emergence activity at 320g/ha against MATIN in % [2] [%] | post-emergence activity at 1280g/ha against MATIN in % [2] [%] | pre-emergence activity at 1280g/ha against ECHCG in % [3] [%] | pre-emergence activity at 320g/ha and against POAAN in % [4] [%] | pre-emergence activity at 1280g/ha and against POAAN in % [4] [%] | post-emergence activity at 1280g/ha against STEME in % [5] [%] | post-emergence activity at 320g/ha against KCHSC in % [6] [%] | post-emergence activity at 1280g/ha against KCHSC in % [6] [%] | pre-emergence activity against DIGSA ([7]; 320 g/ha, Table C5a) [%] | pre-emergence activity at 1280g/ha against KCHSC in % [8, 15] [%] | post-emergence activity against TRZAS ([9]; 80 g/ha, Table F2c) [%] | post-emergence activity against TRZAS ([9]; 320 g/ha, Table F2d) [%] | pre-emergence activity at 320g/ha against ALOMY in % [10] [%] | post-emergence activity against ZEAMX ([11]; 80 g/ha, Table F1c) [%] | post-emergence activity against ZEAMX ([11]; 320 g/ha, Table F1d) [%] | post-emergence activity against BRSNW [12, 16] [%] | post-emergence activity against GLXMA ([13]; 80 g/ha, Table F4c) [%] | pre-emergence activity at 320g/ha against AMARE in % [14] [%] | pre-emergence activity at 1280g/ha against AMARE in % [14] [%] | other results
O=C1N(Cc2ccccc2F)CCC12CC(c1c(F)cccc1F)=NO2 (racemic) [Compound I-10] | 0 | 90 | 90 | 100 | 90 | 100 | 90 | 90 | 90 | 90 | 90 | 0 | 10 | 80 | 0 | 0 | 0 | 0 | 90 | 90 | pre-emergence activity at 1280g/ha against KCHSC in % ([8]; 504 h): 90%; pre-emergence activity at 80g/ha against AMARE in % ([14]; 80 g/ha, 504 h): 90%
Cc1ccsc1C1=NOC2(CCCN(Cc3c(F)cccc3F)C2=O)C1 (racemic) [Compound I-2] | 20 | 90 | 90 | 100 | 100 | 100 | 90 | 90 | 90 | 100 | 90 | 0 | 0 | 90 | 0 | 20 | 10 | 0 | 90 | 90 | pre-emergence activity at 320g/ha against ECHCG in % [3]: 100%; pre-emergence activity at 80g/ha and against POAAN in % ([4]; 80 g/ha): 100%; pre-emergence activity against DIGSA ([7]; 80 g/ha, Table C5b): 90%; pre-emergence activity at 1280g/ha against KCHSC in % ([8]; 504 h): 90%
Cc1ccsc1C1=NOC2(CCN(Cc3c(F)cccc3F)C2=O)C1 (racemic) [Compound I-16, 7-(2,6-Difluorobenzyl)-3-(3-methyl-2-thienyl)-1-oxa-2,7-diazaspiro[4.4]non-2-en-6-one] | 0 |  | 90 | 100 | 100 | 100 | 90 |  | 90 | 80 | 90 | 0 | 0 | 80 | 0 | 0 | 0 | 0 | 90 | 90 | post-emergence activity against ORYZA ([1]; Table F3b, title: 80g/ha, application rate column: 320 g/ha): 0%; pre-emergence activity at 320g/ha against ECHCG in % [3]: 100%; post-emergence activity against BRSNW ([12]; table titled F4d (BRSNW), title: 320 g/ha, application rate: 80 g/ha): 0%; post-emergence activity against GLXMA ([13]; Table F4d, title: 320 g/ha, application rate: 80 g/ha): 0%
